Test results as given in patent publication US20240228927A1, “MICROFLUIDIC PLATFORM FOR DETECTION OF LIVER INJURY” (Javelin Biotech, Inc., priority 2023, published 2024).

system: in vitro liver tissue; experiment: mitochondrial stress test: on-chip oxygen consumption rate (OCR) of liver tissue; assay type: cell-based, human; settings: oligomycin 1 μM, FCCP 0.3 μM, rotenone 1 μM with antimycin A 0.5 μM, 30 min each; matured tissue on chip
Excerpt: The microfluidic chip 100 and control system perform measurements of the oxygen consumption rate of in vitro liver tissue as a readout of mitochondrial function.
Oxygen sensing is achieved by combining a disposable oxygen sensor spot with an oxygen sensing meter. The meter provides an optical excitation signal to the sensor spot and measures the emitted light from the sensor spot. The light emitted by the sensor spot is influenced by a partial pressure of oxygen in fluid in contact with the sensor spot. Two sensor spots are placed in the primary flow path either side of the tissue culture area to measure the oxygen consumption of the tissue. The meters in the control module are placed such that they can measure the oxygen sensor values during normal operation.
The microfluidic chip 100 performs quantification of cellular respiration to assess mitochondrial function. […] To assess the sensitivity of the oxygen sensors 124a-b and on-chip OCR estimates, the microfluidic chip 100 performs a mitochondrial stress test. After cells are seeded on chips (e.g., 4 per treatment), tissue is matured (˜5-7 days), and basal OCR is established, oligomycin (1 μM & 30 min), which blocks proton translocation through complex V and represses ATP and OCR, are administered to the chips and OCR are assessed continuously. […] The oxygen sensors 124a-b read oxygen levels on the fluid path before and after the cell chamber. The inlet readout represents oxygenated media levels leaving the reoxygenation channel and the outlet readout reflects oxygen-depleted media due oxygen consumption of liver tissue. The continuous readouts are captured and recorded by the controller 114 of the microfluidic chip 100.

Row | Compound | OCR (oxygen consumption rate)
1 | C=C(C)[C@H]1Cc2c(ccc3c2O[C@@H]2COc4cc(OC)c(OC)cc4[C@@H]2C3=O)O1 [Rotenone, rotenone] | complete reduction in OCR
2 | CC[C@H]1/C=C/C=C/C[C@@H](C)[C@H](O)[C@@](C)(O)C(=O)[C@@H](C)[C@H](O)[C@@H](C)C(=O)[C@@H](C)[C@H](O)[C@@H](C)/C=C/C(=O)O[C@@H]2[C@H](C)[C@H](CC1)O[C@]1(CC[C@H](C)[C@H](C[C@@H](C)O)O1)[C@H]2C [oligomycin] | decreased OCR values, but non-zero values
3 | FCCP | increases OCR to its maximum level

system: not given; experiment: not given; settings: clinically observed, human plasma; cited from earlier work

Row | Compound | Cmax
4 | O=C(O)Cc1ccccc1Nc1c(Cl)cccc1Cl [Diclofenac] | 4 to 10 µM

system: liver; experiment: not given; settings: BSEP / mitochondrial toxicity relative to the paired liver toxicant; cited from earlier work

Row | Compound | Comparator characteristic
5 | O=C1CC2(CCCC2)CC(=O)N1CCCCN1CCN(c2ncccn2)CC1 [Buspirone] | Less BSEP

same assay, conditions: in vivo; cited from earlier work

Row | Compound | DILI presentation (Less toxic comparator) | DILI presentation (Liver toxicant) | Mechanism of toxicity
6 | O=c1[nH]c(=O)n(C2OC(CO)C(O)C2F)cc1I (stereo not shown) [FIRU] | No DILI | – | –
7 | N[C@@H]1[C@H]2CN(c3nc4c(cc3F)c(=O)c(C(=O)O)cn4-c3ccc(F)cc3F)C[C@@H]12 [Trovafloxacin] | – | Acute liver | –
8 | Mipomersen | – | ALT elevations | Lipid

same assay, conditions: less toxic comparator of Table 1; cited from earlier work

Row | Compound | DILI presentation (Less toxic comparator)
9 | COC(c1ccccc1)(c1ccccc1)[C@H](Oc1nc(C)cc(C)n1)C(=O)O [Ambrisentan] | Minimal
10 | O=C1CC2(CCCC2)CC(=O)N1CCCCN1CCN(c2ncccn2)CC1 [Buspirone] | No/low
11 | CCN(CC)C(=O)/C(C#N)=C/c1cc(O)c(O)c([N+](=O)[O-])c1 [Entacapone] | Low DILI
12 | Cc1cc2c(s1)Nc1ccccc1N=C2N1CCN(C)CC1 [Olanzapine] | No DILI
13 | CCc1ccc(CCOc2ccc(CC3SC(=O)NC3=O)cc2)nc1 (stereo not shown) [Pioglitazone] | Low DILI

same assay, conditions: liver toxicant of Table 1; cited from earlier work

Row | Compound | DILI presentation (Liver toxicant) | Mechanism of toxicity
14 | C=C[C@@H]1C[C@]1(NC(=O)[C@@H]1C[C@@H](Oc2ncc(OC)c3ccc(Cl)cc23)CN1C(=O)[C@@H](NC(=O)OC(C)(C)C)C(C)(C)C)C(=O)NS(=O)(=O)C1CC1 [Asunaprevir] | ALT elevations | –
15 | CN1CCN(C2=Nc3cc(Cl)ccc3Nc3ccccc32)CC1 [Clozapine] | – | Reactive
16 | O=c1[nH]c(=O)n([C@@H]2O[C@H](CO)[C@@H](O)[C@@H]2F)cc1I [Fialuridine] | Liver failure | Mitochondrial
17 | CCc1nn(CCCN2CCN(c3cccc(Cl)c3)CC2)c(=O)n1CCOc1ccccc1 [Nefazodone] | Liver failure | Reactive
18 | Cc1cc2c(cc1CC(=O)c1sccc1S(=O)(=O)Nc1onc(C)c1Cl)OCO2 [Sitaxsentan] | ALT elevations | Reactive
19 | CC[C@H]1OC(=O)[C@H](C)C(=O)[C@H](C)[C@@H](O[C@@H]2O[C@H](C)C[C@H](N(C)C)[C@H]2O)[C@](C)(OC)C[C@@H](C)C(=O)[C@H](C)[C@H]2N(CCCCn3cnc(-c4cccnc4)c3)C(=O)O[C@]12C [Telithromycin] | ALT elevations | Bile acid
20 | Cc1ccc(C(=O)c2cc(O)c(O)c([N+](=O)[O-])c2)cc1 [Tolcapone] | ALT elevations; | Reactive
21 | Cc1c(C)c2c(c(C)c1O)CCC(C)(COc1ccc(CC3SC(=O)NC3=O)cc1)O2 (stereo not shown) [Troglitazone] | ALT, bilirubin | Reactive
22 | N[C@@H]1[C@H]2CN(c3nc4c(cc3F)c(=O)c(C(=O)O)cn4-c3ccc(F)cc3F)C[C@@H]12 [Trovafloxacin] | – | Immune-
23 | CC(c1cc2ccccc2s1)N(O)C(N)=O (stereo not shown) [Zileuton] | ALT elevations | Reactive
